From patent publication US9376454B2, “Beta-lactamase inhibitors” (priority 2013, dated 2016) come the findings set out here.

Holding throughout (type): biochemical
For assay [1], the target named is T1, SHV-5 β-lactamase (Klebsiella pneumoniae, UniProt P0A3M1).
T1 construct: made in house; host or cells: E. coli BL21(DE3)
Nature of the assay: β-Lactamase inhibition enzyme assay, SHV-5. Summed up: (§1)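 Native untagged β-lactamases from E. coli BL21(DE3) were purified and preincubated with inhibitor 15 min at 37° C. Hydrolysis was then followed as initial rates: 100 μM nitrocefin at 486 nm for p99 AmpC and OXA-1, imipenem at 300 nm for KPC-2, cefotaxime at 260 nm for SHV-5. IC50 = 50% reduction versus no-inhibitor controls.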

Assay [2] deals with T2, KPC-2 β-lactamase (Klebsiella pneumoniae, UniProt Q9F663).
T2 construct: made in house; host or cells: E. coli BL21(DE3)
Nature of the assay: β-Lactamase inhibition enzyme assay, KPC-2. The note with it: imipenem as substrate, 300 nm; 15 min at 37° C. with enzyme, PBS pH 7.4; read-out: Class A KPC-2 IC50. Summed up:
as §1

The target of assay [3] is T3, VIM-2 metallo β-lactamase (Pseudomonas aeruginosa, UniProt Q9K2N0).
T3 construct: made in house; host or cells: E. coli BL21(DE3)
Nature of the assay: β-Lactamase inhibition enzyme assay, VIM-2. The note with it: Nitrocefin 100 μM as substrate, 486 nm; 15 min at 37° C. with enzyme, PBS pH 7.4; read-out: Class B VIM-2 IC50. In a few lines:
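Purified untagged VIM-2, expressed in E. coli BL21(DE3), preincubated with inhibitor 15 min at 37 °C. Nitrocefin added at 100 μM final, and absorbance at 486 nm monitored for 10 min. IC50 taken as inhibitor concentration halving initial hydrolysis rate relative to uninhibited controls.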

Assay [4] concerns the target T4, p99 AmpC β-lactamase (Enterobacter cloacae, UniProt P05364).
T4 construct: made in house; host or cells: E. coli BL21(DE3)
In words: β-Lactamase inhibition enzyme assay, p99 AmpC. In a few lines: as §1

Assay [5] addresses T5, OXA-1 β-lactamase (Escherichia coli, UniProt P13661).
T5 construct: made in house; host or cells: E. coli BL21(DE3)
Nature of the assay: β-Lactamase inhibition enzyme assay, OXA-1. The note with it: Nitrocefin 100 μM as substrate, 486 nm; 15 min at 37° C. with enzyme, PBS pH 7.4; read-out: Class D OXA-1 IC50. In a few lines:
as §1

A word on the IC50: it is the concentration that gives 50% inhibition.

T5 sequence (P13661 26-276): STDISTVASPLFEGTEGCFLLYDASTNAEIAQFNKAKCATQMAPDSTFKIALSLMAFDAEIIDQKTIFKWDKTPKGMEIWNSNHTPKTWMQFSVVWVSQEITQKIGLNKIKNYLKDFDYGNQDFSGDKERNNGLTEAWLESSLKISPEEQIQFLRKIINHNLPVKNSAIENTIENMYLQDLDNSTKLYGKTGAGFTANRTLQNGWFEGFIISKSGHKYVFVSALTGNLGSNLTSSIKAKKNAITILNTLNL
T1 sequence (P0A3M1 22-286): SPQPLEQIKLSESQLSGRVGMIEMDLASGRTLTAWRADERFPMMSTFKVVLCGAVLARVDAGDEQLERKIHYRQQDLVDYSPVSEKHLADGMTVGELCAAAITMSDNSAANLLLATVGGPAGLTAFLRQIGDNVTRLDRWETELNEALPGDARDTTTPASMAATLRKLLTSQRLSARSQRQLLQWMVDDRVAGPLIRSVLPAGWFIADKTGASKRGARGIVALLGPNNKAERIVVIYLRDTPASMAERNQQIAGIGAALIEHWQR
T2 sequence (Q9F663 25-293, looked up): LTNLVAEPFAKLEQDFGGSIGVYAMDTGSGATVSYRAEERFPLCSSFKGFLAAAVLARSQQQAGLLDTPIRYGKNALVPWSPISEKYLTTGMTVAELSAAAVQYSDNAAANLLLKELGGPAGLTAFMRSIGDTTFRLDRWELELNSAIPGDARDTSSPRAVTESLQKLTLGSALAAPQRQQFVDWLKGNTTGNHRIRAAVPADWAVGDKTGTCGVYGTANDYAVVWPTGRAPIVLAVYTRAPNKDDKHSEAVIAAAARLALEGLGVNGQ
T4 sequence (P05364 21-381): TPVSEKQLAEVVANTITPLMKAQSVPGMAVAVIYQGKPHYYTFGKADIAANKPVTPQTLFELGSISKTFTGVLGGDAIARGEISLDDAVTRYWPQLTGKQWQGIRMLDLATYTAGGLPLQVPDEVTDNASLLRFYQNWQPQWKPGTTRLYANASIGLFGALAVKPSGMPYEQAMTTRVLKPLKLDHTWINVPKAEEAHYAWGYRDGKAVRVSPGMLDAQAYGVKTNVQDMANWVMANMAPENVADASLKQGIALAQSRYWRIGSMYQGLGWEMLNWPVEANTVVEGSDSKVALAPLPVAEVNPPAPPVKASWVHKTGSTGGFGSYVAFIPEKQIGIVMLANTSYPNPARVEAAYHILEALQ

Turning to `NCCN1Cc2ccc(CC(=O)N[C@H]3Cc4cccc(C(=O)O)c4OB3O)cc2C1` [Example 49, (R)-3-{2-[2-(2-Amino-ethyl)-2,3-dihydro-1H-isoindol-5-yl]-acetylamino}-2-hydroxy-3,4-dihydro-2H-benzo[e][1,2]oxaborinine-8-carboxylic acid], the IC50 is below 100 nM in assay [1]; below 100 nM in assay [2]; 100 to 1000 nM in assay [3]; below 100 nM in assay [4]; below 100 nM in assay [5].
For the compound `O=C(N[C@H]1Cc2cccc(C(=O)O)c2OB1O)c1cnc2c(c1)CNC2` [Example 50, (3R)-3-(6,7-dihydro-5H-pyrrolo[3,4-b]pyridine-3-carbonylamino)-2-hydroxy-3,4-dihydro-1,2-benzoxaborinine-8-carboxylic acid], the IC50 was below 100 nM in assay [1]; below 100 nM in assay [2]; 100 to 1000 nM in assay [3]; below 100 nM in assay [4]; below 100 nM in assay [5].
`O=C(Cc1ccc2c(c1)CNCC2)N[C@H]1Cc2cccc(C(=O)O)c2OB1O` [Example 51, (R)-2-Hydroxy-3-(2-1,2,3,4-tetrahydro-isoquinolin-7-yl-acetylamino)-3,4-dihydro-2H-benzo[e][1,2]oxaborinine-8-carboxylic acid]: the IC50 in assay [1], in assay [2], in assay [3], in assay [4] and in assay [5] was below 100 nM each time.
As for `O=C(N[C@H]1Cc2cccc(C(=O)O)c2OB1O)c1cnco1` [Example 52, (R)-2-Hydroxy-3-[(oxazole-5-carbonyl)-amino]-3,4-dihydro-2H-benzo[e][1,2]oxaborinine-8-carboxylic acid], the concentration for half-maximal inhibition (IC50) in assay [1] was below 100 nM; in assay [2] it was below 100 nM; in assay [3], 100 to 1000 nM; in assay [4], below 100 nM; in assay [5], below 100 nM.
For `O=C(O)c1ccccc1C(=O)N[C@H]1Cc2cccc(C(=O)O)c2OB1O` [Example 53, (R)-3-(2-carboxybenzamido)-2-hydroxy-3,4-dihydro-2H-benzo[e][1,2]oxaborinine-8-carboxylic acid], the IC50 was 100 to 1000 nM in assay [1]; 100 to 1000 nM in assay [2]; 1000 to 10000 nM in assay [3]; below 100 nM in assay [4]; below 100 nM in assay [5].
On to `NCCNC(=O)c1ccccc1C(=O)N[C@H]1Cc2cccc(C(=O)O)c2OB1O` [Example 54, (R)-3-(2-(2-aminoethylcarbamoyl)benzamido)-2-hydroxy-3,4-dihydro-2H-benzo[e][1,2]oxaborinine-8-carboxylic acid], for which the IC50 in assay [1] is 100 to 1000 nM; in assay [2], 100 to 1000 nM; in assay [3] it was 1000 to 10000 nM; in assay [4], below 100 nM; in assay [5], 1000 to 10000 nM.
Regarding `CC(C)NCc1cc(C(=O)N[C@H]2Cc3cccc(C(=O)O)c3OB2O)ccc1CN` [Example 55, (R)-3-(4-(aminomethyl)-3-((isopropylamino)methyl)benzamido)-2-hydroxy-3,4-dihydro-2H-benzo[e][1,2]oxaborinine-8-carboxylic acid], the IC50 in assay [1] lay in the range of 100 to 1000 nM; in assay [2] it was 1000 to 10000 nM; in assay [3] it was 100 to 1000 nM; in assay [4], 100 to 1000 nM; in assay [5] it was 100 to 1000 nM.
Turning to `CC(C)NCc1ccc(C(=O)N[C@H]2Cc3cccc(C(=O)O)c3OB2O)cc1CNC(C)C` [Example 56, (R)-3-(3,4-bis((isopropylamino)methyl)benzamido)-2-hydroxy-3,4-dihydro-2H-benzo[e][1,2]oxaborinine-8-carboxylic acid], the IC50 in assay [1] is below 100 nM; in assay [2], below 100 nM; in assay [3], 100 to 1000 nM; in assay [4], below 100 nM; in assay [5], below 100 nM.
